Data on one compound can be found in patent US8026274B2, “Use of oxandrolone in the treatment of burns and other wounds” (Savient Pharmaceuticals, Inc., priority 1996, dated 2011).

For data set [1], the system named is patients with alcoholic hepatitis. The following applies: dosages of up to 80 mg/day; cited from earlier work.
For data set [2] the following is noted: in contrast to the majority of oral androgenic anabolic steroids; cited from earlier work.
Data set [3] deals with burn patients (deep burn of 30-50% of body surface). The experiment in a line: Example 2: effect of oxandrolone on post-burn catabolism (II), first three weeks of recovery phase. The data set is classed as in vivo, human. As to the method:
Another study on the effect of oxandrolone on post-burn patients was carried out as follows.
The onset of the study was defined as the onset of the recovery phase (anabolic phase). The study period included the first three weeks of the recovery phase. Although somewhat arbitrary, the beginning of the recovery period was determined for all patients using the following criteria: • a. No need for life support measures, with a stable cardiopulmonary status; • b. No active infection; • c. Basal body temperature below 99.5° F.; • d. Metabolic rate at rest (indirect calorimetry) being less than 130% of normal; • e. Open wound (not counting donor sites) not exceeding 10% TBS; • f. Patient taking adequate oral diet with supplements or tube feeding and off all parenteral feeding; • g. active participation in a physical therapy program including resistance exercises especially to large muscle groups.
The patients were divided into three groups in a prospective randomized manner: • Group 1: High protein high calorie ad lib oral diet and protein supplement Met-Rx™. The supplement was given in a quantity equal to approximately one liter so that total protein intake would approximate 2 g/kg/day. • Group 2: Same as Group I with the addition of oxandrolone 10 mg orally twice a day. • Group 3: ad lib oral diet and a protein hydrolysate supplement (Ensure-HN or Sustacal). These supplements contain approximately 40-45 g/l protein, 140-150 g/l carbohydrate and 30-37 g/l fat. Daily protein intake consumed equalled 1.3-1.5 g/kg or 75% above the RDA value for healthy normals of 0.8 g/kg. This group was managed in the ten months prior to the onset of this study.
All patients were located in the burn/trauma step-down unit and then transferred to an acute rehabilitation hospital usually within the first week of onset of the recovery period. A burn nurse coordinator followed all patients at the rehabilitation hospitals. All patients were monitored until discharge but only the first three week period was used for the study period.
The following factors were checked: • a. Fatigue was measured objectively through increases in pulse of over 75% of predicted maximum (based on age) and a respiratory rate exceeding 30 breaths per minute beyond one minute after completion of the activity. • b. Muscle function was quantitated using a physical therapy index. The physical therapy program was determined for each patient by the burn therapist team based on optimum projected goals to be achieved at the three week period. Standard isokinetic and resistance exercises were used to increase strength. Ambulation, stair climbing and the stationary bike were used to increase endurance. Since the basic components of therapy programs were nearly identical between patients, an index was developed which quantitated progress of patient performance:
• c. Body weight; • d. Daily nutritional profiles; • e. Liver function
Within each group, paired data was analyzed using Dunnett's T-test comparing individual time periods. Between groups, analysis was compared by use of a nonparametric method, the Wilcoxan Signed Rank Test. Standard regression analysis was also performed. A p<0.05 was considered significant.

The conditions of data set [4]: doses below 80 mg; cited from earlier work.
Data set [5] deals with pressure sores (decubitus ulcers) in a paraplegic patient. The experiment in a line: Example 3: oxandrolone treatment of pressure sores (decubitus ulcers). The data set is classed as in vivo, human. As to conditions: 20 mg per day orally, preliminary result. An excerpt:
A paraplegic patient was suffering from pressure sores (decubitus ulcers) which had been unhealed for over one year. […] Further experiments using oxandrolone for treatment of pressure sores and other wounds are planned.

Data set [6] concerns burn patients (deep burn of 30-50% of body surface). The experiment in a line: Example 1: effect of oxandrolone on post-burn catabolism (I), recovery phase in burn patients. The data set is classed as in vivo, human. As to the method: A study on the effect of oxandrolone on post-burn patients was performed as described below.
The patients included in this study had undergone: • a. catabolic phase until 80-90% of wound closure (4-10 weeks); • b. loss of 15-25% body weight (mostly lean body mass) during catabolic phase despite optimum nutrition;
The transition from “catabolic” to recovery “anabolic” was defined by: • a. No need for life support measures, being stable and out of the Intensive Care Unit (ICU); • b. No active infection (stress); • c. Open wound (not counting donor sites) not exceeding 10% Total Body Surface (TBS); • d. Patient taking oral diet with supplements or tube feeding (off parenteral feeding); • e. patient can actively participate in a physical therapy program with active ROM exercises accentuating the anabolic stimulus of exercise.
All patients were located in the burn step-down unit or in an acute rehabilitation hospital where daily information is retrieved from the physiatrist, nutritionist, and therapist.
The patients were divided into three groups in a prospective randomized manner: • Group 1: Standard nutritional goals as defined by the nutrition support service. • Group 2: Same as Group 1 plus 2-3 Met-Rx™ (protein supplement) per day (sufficient protein to increase daily protein intake to 2-2.2 g/kg/day). • Group 3: Same as Group 2 plus oxandrolone 20 mg orally four times daily. Measurements
The following factors were checked: • a. Subjective energy level (per Braintree study) 0-10; • b. Physical therapy index^1 (per Braintree study) 0-10: • 0 completes 25% session with fatigue • 2 completes 50% session with fatigue • 4 completes 75% session with fatigue • 6 completes 100% session with fatigue • 8 completes 100% session with no fatigue • 10 completes 100% session and more with no fatigue; • c. Weekly weight gain; • d. Daily nutritional profiles; • e. Measurement of lean body mass by bioelective impedance. ^1 assessment of muscle strength and endurance
The onset of the study was defined as the onset of the recovery phase (anabolic phase). Patients were studied for 3 weeks (from the onset of anabolism).

For data set [7] the following is noted: in vivo; cited from earlier work.
[8] abbreviates: Group 2: oxandrolone 10 mg orally twice a day plus Met-Rx.
The mark [9] stands for this setting: Group III: oxandrolone 20 mg orally four times daily plus Met-Rx, 3 weeks.

Molecules are shown by their SMILES. Entries after “also recorded” stand apart in the source; their conditions may differ.

Take `C[C@]12COC(=O)C[C@@H]1CC[C@@H]1[C@@H]2CC[C@@]2(C)[C@H]1CC[C@]2(C)O` [oxandrolone, 17α-methyl-17β-hydroxy-2-oxa-5α-androstan-3-one]: the safety entry in data set [1] is reported as “safe”. The hepatic metabolism entry in data set [2] is recorded as “relatively little hepatic metabolism”. Further, in data set [3] (3 of 6 patients followed for eight weeks after discontinuation of three weeks of oxandrolone), the “maintenance of weight after discontinuation” value is “the weight remained”. Moreover, in data set [3] (setting [8]), the “average time of discharge from the rehabilitation or recovery phase to home” value is 22 ± 4 days, the “weight gain over the three week period relative to Group 1 (Met-Rx alone)” value is “double that of Group 1” and the “weight gain relative to retrospective Group 3 (standard supplements)” value is “nearly four times that of retrospective Group 3; also recorded: significantly increased”. The “physical therapy index (muscle strength and endurance, 0-10)” value in data set [3] (Group 2: oxandrolone 10 mg orally twice a day plus Met-Rx, three weeks) is given as “performance exceeded expectations; also recorded: significantly higher than either of the other groups; also recorded: significantly increased”. Also, the “liver function tests / chemical abnormality” value in data set [3] (Group 2: oxandrolone 10 mg orally twice a day plus Met-Rx, one patient) is “transient small increase in alkaline phosphatase”. The hirsutism result in data set [3] (the three women in the oxandrolone group) is given as “No hirsutism”. Further, in data set [4], the water retention entry is on record as “not reported to occur”. Also, the “healing of pressure sores unhealed for over one year” value in data set [5] is listed as “the sores began to heal”. Further, in data set [6] (setting [9]), the “energy level (0-10)” value is listed as “markedly improved” and the “therapy (physical therapy index 0-10)” value is “markedly improved”. The “weight gain relative to Group I (standard nutrition)” value in data set [6] (Group III: oxandrolone 20 mg orally four times daily plus Met-Rx, 4 patients, 3 weeks) is reported as “four times that of Group I”. The food intake entry in data set [6] (Group III: oxandrolone plus Met-Rx, compared with Group II) is recorded as “apparent added stimulus to food intake”. Further, the “lean body weight gain as share of weight gain, by bioelective impedance” value in data set [6] (combination of Met-Rx and oxandrolone) is on record as 80%. In data set [7], the “anabolic activity relative to its androgenic activity” value is listed as “approximately 6 times” and the “anabolic activity relative to that of methyltestosterone” value was 6.3 times.
